Data: patent US9024021B2, “Diarylacetylene hydrazide containing tyrosine kinase inhibitors” (Sun Pharma Advanced Research Company Ltd., priority 2011, dated 2015)

How the values were obtained:
Abl (M351T) (human) = target: T1, Abl (M351T) (human) (Homo sapiens, UniProt P00519, M351T); experiment: Mutated Abl kinase inhibition (in vitro), M351T; type: biochemical; details: 100 nM
T1 construct: purchased Millipore Pharma Services (contract assay, UK pharmacology laboratory)
Procedure: (§1) The kinase assays were performed by Millipore Pharma Services at their UK pharmacology laboratory.
(§2) In a final reaction volume of 25 μL, Abl (human) (5-10 mU) is incubated with 8 mM MOPS pH7.0, 0.2 mM EDTA, 50 μM […], 10 mM Mg(OAc)2 and [γ-^33P-ATP] [specific activity approx. 500 cpm/pmol, concentration as required). The reaction is initiated by the addition of the MgATP mix. After incubation for 40 minutes at room temperature, the reaction is stopped by the addition of 5 μL of a 3% phosphoric acid solution. 10 μL of the reaction is then spotted onto a P30 filtermat and washed three times for 5 minutes in 75 mM phosphoric acid and once in methanol prior to drying and scintillation counting.
(§3) The procedure remains exactly the same as described earlier for Abl kinase, the Abl (human) kinase being replaced by mutated Abl (Q252H) (human), Abl (Y253F) (human), Abl (T315I) (human), Abl (M351T) (human) and Abl (H396P) (human) kinases.
(§4) Within each kinase assay, percent of control values were calculated for each test compound raw data point based on mean minimum (0%) and maximum (100%) controls (n=4 per control) for that kinase (sample−mean minimum/mean maximum−mean minimum×100%). Percent inhibition was calculated from these values (100−mean percent of control).

Abl (Q252H) (human) = target: T2, Abl (Q252H) (human) (Homo sapiens, UniProt P00519, Q252H); experiment: Mutated Abl kinase inhibition (in vitro), Q252H; type: biochemical; details: 100 nM
T2 construct: purchased Millipore Pharma Services (contract assay, UK pharmacology laboratory)
Procedure: as §1, §2, §3, §4

Lck (human) = target: T3, Lck (human) (Homo sapiens, UniProt P06239); experiment: Lck kinase inhibition (in vitro); type: biochemical; details: read-out: % Inhibition at 100 nM Lck
T3 construct: purchased Millipore Pharma Services (contract assay, UK pharmacology laboratory)
T3 sequence (P06239 whole entry): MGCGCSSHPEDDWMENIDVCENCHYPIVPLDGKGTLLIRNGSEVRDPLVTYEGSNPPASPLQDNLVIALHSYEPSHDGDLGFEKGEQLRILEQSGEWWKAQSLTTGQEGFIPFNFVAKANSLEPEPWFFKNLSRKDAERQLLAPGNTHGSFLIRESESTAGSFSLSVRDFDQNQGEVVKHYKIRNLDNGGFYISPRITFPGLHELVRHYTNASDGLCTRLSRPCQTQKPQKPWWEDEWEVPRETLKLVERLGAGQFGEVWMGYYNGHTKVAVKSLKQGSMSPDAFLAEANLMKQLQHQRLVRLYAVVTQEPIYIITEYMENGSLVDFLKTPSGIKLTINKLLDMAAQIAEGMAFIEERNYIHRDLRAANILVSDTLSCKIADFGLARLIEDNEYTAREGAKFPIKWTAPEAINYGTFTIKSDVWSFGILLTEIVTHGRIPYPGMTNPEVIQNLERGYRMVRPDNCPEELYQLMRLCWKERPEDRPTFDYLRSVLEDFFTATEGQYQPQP
Procedure: as §1
In a final reaction volume of 25 μL, Lck (human) (5-10 mU) is incubated with 50 mM Tris pH 7.5, 0.1 mM EGTA, 0.1 mM Na3VO4, 250 μM […] [Cdc2 peptide), 10 mM Mg(OAc)2 and [γ-^33P-ATP] [specific activity approx. 500 cpm/pmol, concentration as required). The reaction is initiated by the addition of the MgATP mix. After incubation for 40 minutes at room temperature, the reaction is stopped by the addition of 5 μL of a 3% phosphoric acid solution. 10 μL of the reaction is then spotted onto a P30 filtermat and washed three times for 5 minutes in 75 mM phosphoric acid and once in methanol prior to drying and scintillation counting.
as §4

Abl (Y253F) (human) = target: T4, Abl (Y253F) (human) (Homo sapiens, UniProt P00519, Y253F); experiment: Mutated Abl kinase inhibition (in vitro), Y253F; type: biochemical; details: 100 nM
T4 construct: purchased Millipore Pharma Services (contract assay, UK pharmacology laboratory)
Procedure: as §1, §2, §3, §4

Lyn (human) = target: T5, Lyn (human) (Homo sapiens, UniProt P07948); experiment: Lyn kinase inhibition (in vitro); type: biochemical; details: read-out: % Inhibition at 100 nM Lyn
T5 construct: purchased Millipore Pharma Services (contract assay, UK pharmacology laboratory)
T5 sequence (P07948 whole entry): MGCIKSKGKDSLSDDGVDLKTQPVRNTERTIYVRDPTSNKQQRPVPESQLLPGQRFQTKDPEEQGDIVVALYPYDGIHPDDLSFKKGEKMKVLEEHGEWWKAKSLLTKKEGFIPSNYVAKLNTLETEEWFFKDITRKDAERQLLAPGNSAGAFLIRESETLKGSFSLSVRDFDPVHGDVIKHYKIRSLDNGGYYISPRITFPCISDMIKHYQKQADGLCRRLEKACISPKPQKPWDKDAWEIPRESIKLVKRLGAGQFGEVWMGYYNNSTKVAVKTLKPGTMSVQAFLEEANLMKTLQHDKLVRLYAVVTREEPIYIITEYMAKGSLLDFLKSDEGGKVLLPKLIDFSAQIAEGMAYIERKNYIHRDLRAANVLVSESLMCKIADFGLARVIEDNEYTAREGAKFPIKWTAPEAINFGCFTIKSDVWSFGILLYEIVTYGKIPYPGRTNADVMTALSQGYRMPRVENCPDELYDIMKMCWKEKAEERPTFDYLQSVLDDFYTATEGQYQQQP
Procedure: as §1
In a final reaction volume of 25 μL, Lyn (human) (5-10 mU) is incubated with 50 mM Tris pH 7.5, 0.1 mM EGTA, 0.1 mM Na3VO4, 0.1% β-mercaptoethanol, 0.1 mg/ml poly(Glu, tyr) 4:1, 10 mM Mg(OAc)2 and [γ-^33P-ATP] [specific activity approx. 500 cpm/pmol, concentration as required). The reaction is initiated by the addition of the MgATP mix. After incubation for 40 minutes at room temperature, the reaction is stopped by the addition of 5 μL of a 3% phosphoric acid solution. 10 μL of the reaction is then spotted onto a filtermat A and washed three times for 5 minutes in 75 mM phosphoric acid and once in methanol prior to drying and scintillation counting.
as §4

Abl (H396P) (human) = target: T6, Abl (H396P) (human) (Homo sapiens, UniProt P00519, H396P); experiment: Mutated Abl kinase inhibition (in vitro), H396P; type: biochemical; details: 100 nM
T6 construct: purchased Millipore Pharma Services (contract assay, UK pharmacology laboratory)
Procedure: as §1, §2, §3, §4

K562 cells = experiment: In-vitro cell proliferation assay (MTT), K562 cells; type: cell-based; details: Homo sapiens; for inhibition at 0.01 µM: 10 nM; for inhibition at 0.1 µM: 100 nM
Procedure: In-Vitro Cell Proliferation Assay
K562/U937 cells (2×10^4 per well) were incubated with the test compounds/vehicle in a total volume of 200 μL of media at 37° C. with 5% CO2. […] The cells were incubated overnight at 37° C. with 5% CO2. On Day 5 the optical density was measured at 570 nm with 630 nm as reference wavelength. The optical density in the vehicle treated wells was compared with that of the test compound treated wells.

Abl (T315I) (human) = target: T7, Abl (T315I) (human) (Homo sapiens, UniProt P00519, T315I); experiment: Abl-T315I kinase inhibition (in vitro); type: biochemical; details: for inhibition at 0.1 µM: 100 nM; for inhibition at 1 µM: 1000 nM
T7 construct: purchased Millipore Pharma Services (contract assay, UK pharmacology laboratory)
Procedure: as §1
[specific activity approx. 500 cpm/pmol, concentration as required). The reaction is initiated by the addition of the MgATP mix. After incubation for 40 minutes at room temperature, the reaction is stopped by the addition of 5 μL of a 3% phosphoric acid solution. 10 μL of the reaction is then spotted onto a P30 filtermat and washed three times for 5 minutes in 75 mM phosphoric acid and once in methanol prior to drying and scintillation counting.
as §4

| Structure (SMILES) | inhibition at 0.1 µM (Abl (M351T) (human)) | inhibition at 0.1 µM (Abl (Q252H) (human)) | inhibition at 0.1 µM (Lck (human)) | inhibition at 0.1 µM (Abl (Y253F) (human)) | inhibition at 0.1 µM (Lyn (human)) | inhibition at 0.1 µM (Abl (H396P) (human)) | inhibition at 0.01 µM (K562 cells) | inhibition at 0.1 µM (K562 cells) | inhibition at 0.1 µM (Abl (T315I) (human)) | inhibition at 1 µM (Abl (T315I) (human)) |
| --- | --- | --- | --- | --- | --- | --- | --- | --- | --- | --- |
| Cc1ccc(C(=O)NNC(=O)c2c(C)cccc2Cl)cc1C#Cc1cnc2ccccc2c1 [I.2, N′-(2-Chloro-6-methylbenzoyl)-4-methyl-3-[2-(3-quinolyl)ethynyl]benzohydrazide] | 100% | 100% | 84% | 101% | 97% | 99% |  |  |  |  |
| Cc1ccc(C(=O)NNC(=O)c2c(C)cccc2I)cc1C#Cc1cnc2ccccc2c1 [I.4, N′-(2-Iodo-6-methylbenzoyl)-4-methyl-3-[2-(3-quinolyl)ethynyl]benzohydrazide] | 99% | 100% | 81% | 98% | 97% | 100% | 102% | 100% | 90% | 100% |
| Cc1ccc(C(=O)NNC(=O)c2c(C)cccc2Cl)cc1C#Cc1cnc2cccnn12 [I.16, N′-(2-Chloro-6-methylbenzoyl)-3-[2-(imidazo[1,2-b]pyridazin-3-yl)ethynyl]-4-methylbenzohydrazide] | 100% | 98% | 65% | 98% | 74% | 99% | 104% | 102% | 70% | 93% |
